Test results from patent US8629242B2, “Methods of inhibiting calcineurin with ApoE analogs” (Cognosci, Inc., priority 2007, dated 2014).
Where a SMILES comes first, the peptide text is derived from it. [ ]: non-standard residue; d: D form. Aib = CC(C)(N)C(=O)O

What was measured:
[1] = system: peritoneal macrophages isolated from EAE mice; experiment: In vitro effect on LPS+IFN-γ-induced inflammatory mediators in macrophages from saline-treated EAE mice; format: cell-based; settings: for inhibition of NO release: 72 hours after LPS+IFN-γ; for NOS2 expression (real-time PCR): normalized to 18S rRNA, fold change vs control
Method: FIG. 5. In vitro effects of COG compounds on LPS and IFN-γ-induced production of inflammatory mediators in cultured peritoneal macrophages isolated from EAE mice. Conditioned medium with or without COG 133 or COG 112 was collected 45 hours after immunogen exposure for analysis of TNF-α (A) and IL-6 (B), or 72 hours after inflammatory stimulation for measurement of nitrite (C). Level of NOS2 expression was assessed by quantitative real-time PCR (D). NOS2 expression was first normalized by the endogenous control (18S rRNA) and then expressed as fold change compared to control group. Statistical analysis was performed by ANOVA and significance was shown as *(p<0.05) and **(p<0.001).
We then examined the ability of COG 112 (SEQ ID NO: 5) and COG 133 (SEQ ID NO: 1) to inhibit the in vitro release of NO, TNF-α and IL-6 using macrophages obtained from saline-treated EAE mice on dpi 35. Conditioned medium with or without COG 133 or COG 112 was collected 45 hours after immunogen (LPS+IFN-γ) exposure for analysis of TNF-α and IL-6, or 72 hours after stimulation for measurement of nitrite. […] Levels of NOS2 expression were quantified by real-time PCR. NOS2 expression was first normalized by the endogenous control (18S rRNA) and then expressed as fold change compared to control group.

[2] = target: T1, Calcineurin (Homo sapiens, UniProt Q08209); experiment: Cell-free calcineurin phosphatase activity assay (BioMol kit); format: biochemical; settings: various concentrations
T1 construct: purchased BioMol AK-804
Method: FIG. 14. ApoE analogs bind directly to calcineurin and inhibit its activity. […] (B) Immunoprecipitation of human brain lysate with a biotin-COG 133 conjugate. Lane 1=markers; lane 2=clear bead; lane 3=biotin-COG 133 bead conjugate; and lane 4=10 μg lysate. (C) Immunoprecipitation of different glial cultures with a biotin-COG 133 conjugate. Lane 1=markers; lane 2=astrocyte; lane 3=microglia; and lane 4=oligodendrocyte precursor cells (OPC). Blots in B and C were probed for calcineurin (PP2B).
Calcineurin activity was measured in a cell-free in vitro assay in the presence of various concentrations of COG 133 (SEQ ID NO: 1), COG 112 (SEQ ID NO: 5), COG 68 (SEQ ID NO: 7), COG 125 (Ac-AS(Aib)LRKL(Aib)KR—COOH; SEQ ID NO: 8), or antennapedia (antp), the prefix peptide for COG 112. […] Using a BioMol Calcineurin Phosphatase Activity Kit (Cat. #AK-804), the assay was conducted according to manufacturer's instructions. […] This inhibition of calcineurin activity by ApoE analogs is mediated by a direct interaction of the ApoE analog with the phosphatase.

[3] = system: oligodendrocyte precursor cells (OPC)/microglia mixed culture; experiment: LPS-induced OPC cell death in OPC/microglia mixed culture; format: cell-based, rat; settings: 1 μM, LPS 10 ng/ml; for OPC cell death by LDH and MTT assays: 24 hours
Method: FIG. 9. COG 112 protects OPCs from LPS-induced cell death in OPC/microglia mixed culture. LPS (final conc. 10 ng/ml) was added to an OPC/microglia mixed culture with or without 1 μM COG 112. The prefix peptide of COG 112, antennapedia, was used as a negative control. Cells were fixed with 4% formaldehyde and stained with the OPC marker, NG2, and counterstained with hoescht. (A) LPS-treated cultures; (B) LPS+antennapedia (Antp)-treated cultures; (C) LPS+COG 112-treated cultures; (D) Bar graph summarizing the number of NG2+ cells per field in each condition. ** p<0.01.
FIG. 19. COG 345 promotes remyelination in lysolecithin-induced demyelination model of cerebellum slices. Significant demyelination was induced by lysolecithin (0.5 mg/ml) in cerebellar slices. COG 112 or COG 345 (1 μM) was added on day 3 when full demyelination was achieved. 4 days later, the slices were fixed and double stained with myelin marker MBP (green) and Purkinje cell marker calbindin (red). (A) Untreated-slices; (B) lysolecithin-treated slices; (C) COG 112-treated slices after lysolecithin exposure; (D) COG 345-treated slices after lysolecithin exposure. E-F. ApoE analogs protect OPCs from LPS-induced cell death in OPC/microglia mixed culture. OPCs and microglia derived from brain culture of P2 rat pups were plated in 96-well plates in 1:1 ratio. LPS (10 ng/ml) together with 1 μM of the indicated ApoE analogs was added to the cultures. After 24 hours, OPC cell death was quantified by LDH assay (E) and MTT assay (F). Statistical analysis was conducted by one-way ANOVA followed by Dunnett comparison vs. LPS group. * P<0.01, ** P<0.001, n=3.
A primary culture prepared from the brains of P2 Sprague-Dawley rat pups was grown for seven days. Microglia and OPCs were shaken off from the primary culture with an orbital shaker at 150˜200 rpm. The OPCs and microglia were plated in 24-well plates at a 1:1 ratio with 5×10^4 cells per well of each cell type. After 24 hours, LPS (final conc. 10 ng/ml) was added with or without 1 μM COG 112. The prefix peptide of COG 112, antennapedia, was used as a negative control. After incubation for 72 hours, the medium was removed and cells were fixed with 4% formaldehyde and stained with the OPC marker, NG2, and counterstained with hoescht. Five fields from each of the wells were randomly chosen to count the number of NG2-positive cells.
To further assess the ability of the novel ApoE analogs to promote remyelination, the effect of the analogs on OPC survival was assessed in an OPC/microglia mixed culture. OPC and microglia derived from primary culture of P2 rat pup brain were plated on 96-well plates in 1:1 ratio. […] After 24 hours, cell death of OPC was quantified by both LDH and MTT assays.

[4] = 45 hours after LPS+IFN-γ, dose-dependent suppression

| Compound | suppression of IL-6 ([1]; 5 μM, 45 hours after LPS+IFN-γ) | suppression of TNF-α ([1]; 5 μM, 45 hours after LPS+IFN-γ) | inhibition of NO release ([1]; 5 μM) | NOS2 expression (real-time PCR) [1] | inhibition of calcineurin activity [2] | concentration giving complete inhibition of IL-6 levels [1, 4] | concentration giving complete inhibition of TNF-α levels [1, 4] | OPC cell death by LDH and MTT assays [3] | LPS-induced cell death of OPCs (number of NG2-positive cells) ([3]; 72 hours) |
| --- | --- | --- | --- | --- | --- | --- | --- | --- | --- |
| CC(=O)N[C@@H](CC(C)C)C(=O)N[C@@H](CCCNC(=N)N)C(=O)N[C@H](C(=O)N[C@@H](CCCNC(=N)N)C(=O)N[C@@H](CC(C)C)C(=O)N[C@@H](C)C(=O)N[C@@H](CO)C(=O)N[C@@H](Cc1c[nH]cn1)C(=O)N[C@@H](CC(C)C)C(=O)N[C@@H](CCCNC(=N)N)C(=O)N[C@@H](CCCCN)C(=O)N[C@@H](CC(C)C)C(=O)N[C@@H](CCCNC(=N)N)C(=O)N[C@@H](CCCCN)C(=O)N[C@@H](CCCNC(=N)N)C(=O)N[C@@H](CC(C)C)C(=O)N[C@@H](CC(C)C)C(N)=O)C(C)C [COG 133] | only moderate, yet statistically significant, suppression | only moderate, yet statistically significant, suppression | about 37% | affect NOS2 expression | dose-dependent inhibition |  |  |  |  |
| Ac-RQIKIWFQNRRMKWKKCLRVRLASHLRKLRKRLL-NH2 [COG 112] |  |  | completely inhibited | more potent effect than COG 133 | dose-dependent inhibition | about 5 μM | about 5 μM | most potent | significantly reduced LPS-induced cell death of OPCs |
| CC(=O)NC(=N)NCCC[C@H](NC(=O)[C@H](CCCCN)NC(=O)[C@H](CCCNC(=N)N)NC(=O)[C@H](CC(C)C)NC(=O)[C@H](CCCCN)NC(=O)[C@H](CCCNC(=N)N)NC(=O)[C@H](CC(C)C)NC(=O)C(C)(C)NC(=O)[C@H](CO)NC(=O)[C@H](C)NC(=O)[C@H](CC(C)C)NC(=O)[C@H](CCCNC(=N)N)NC(=O)[C@@H](NC(=O)[C@H](CCCNC(=N)N)NC(=O)[C@H](CC(C)C)NC(C)=O)C(C)C)C(=O)N[C@@H](CC(C)C)C(=O)N[C@@H](CC(C)C)C(N)=O [COG 345, acetyl-LRVRLAS-Aib-LRKLRK(acetyl-Arg)LL-amide] (Ac-LRVRLAS[Aib]LRKLRKR(Ac)LL-NH2) |  |  |  |  |  |  |  | most potent |  |
